Measured values: patent US7495027B2, “3-aryl-4-hydroxyfuranone compounds and the human and animal health use thereof” (Wyeth, priority 2003, dated 2009)
Like-named read-outs stand apart in the source and are kept apart here.

Key:
[1] = target: E. coli Uridine-diphosphate-N-acetvimuramoyl: L-alanine lipase, MurC (Escherichia coli, UniProt P17952); test: Inhibitory activity against MurC (E. coli); type: biochemical
[2] = target: E. coli Uridine-diphosphate-N-acetylmuramoyl-L-alanine: D-glutamate liease, MurD (Escherichia coli, UniProt P14900); test: biochemical; conditions: (E) E. coli enzyme
Procedure, shortened: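 Final buffer 83 mM Tris/HCl pH 8.0, 50 mM MgCl2, 2 mM ATP. Compounds from 10 mg/mL DMSO stocks diluted to 100 μg/mL in 50 mM Tris/HCl pH 8.5 (working solution, not final assay level).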

[3] = tested on: larvae of blowfly, Lucilia sericata; test: whole plant or invertebrate; conditions: dose rate of 20 ppm, Lucilia sericata larvae on treated filter paper with bovine serum
Procedure: Comparative Evaluation of the Efficacy of a 3-Aryl-4-hydroxyfuranone Compound Against Blowfly Larvae
In this evaluation, filter paper discs are treated with an acetone solution of test compound and allowed to dry. Bovine serum and newly emerged larvae of blowfly, Lucilia sericata, are added to the treated filter paper. Mortality is assessed at 24 h and 48 h. When more than one evaluation is performed, the data are averaged.

[4] = assessed at 24 h, read-out: % Mortality 24 h
[5] = assessed at 48 h, read-out: % Mortality 48 h
[6] = (E) E. coli enzyme, read-out: MurC IC50 (converted)

Chain of E. coli Uridine-diphosphate-N-acetvimuramoyl: L-alanine lipase, MurC (P17952 whole entry): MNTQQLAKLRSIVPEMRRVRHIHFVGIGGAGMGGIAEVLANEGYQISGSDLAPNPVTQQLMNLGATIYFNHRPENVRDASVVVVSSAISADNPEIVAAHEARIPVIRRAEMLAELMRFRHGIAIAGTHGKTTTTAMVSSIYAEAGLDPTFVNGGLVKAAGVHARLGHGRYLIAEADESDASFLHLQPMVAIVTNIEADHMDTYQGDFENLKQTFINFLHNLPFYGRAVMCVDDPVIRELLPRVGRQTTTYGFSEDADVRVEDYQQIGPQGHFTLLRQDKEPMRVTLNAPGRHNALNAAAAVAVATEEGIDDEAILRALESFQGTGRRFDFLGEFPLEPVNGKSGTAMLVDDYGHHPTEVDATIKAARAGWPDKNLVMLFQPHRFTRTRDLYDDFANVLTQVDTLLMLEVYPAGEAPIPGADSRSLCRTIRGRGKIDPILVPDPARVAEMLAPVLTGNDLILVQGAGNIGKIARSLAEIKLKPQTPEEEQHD
Chain of E. coli Uridine-diphosphate-N-acetylmuramoyl-L-alanine: D-glutamate liease, MurD (P14900 whole entry): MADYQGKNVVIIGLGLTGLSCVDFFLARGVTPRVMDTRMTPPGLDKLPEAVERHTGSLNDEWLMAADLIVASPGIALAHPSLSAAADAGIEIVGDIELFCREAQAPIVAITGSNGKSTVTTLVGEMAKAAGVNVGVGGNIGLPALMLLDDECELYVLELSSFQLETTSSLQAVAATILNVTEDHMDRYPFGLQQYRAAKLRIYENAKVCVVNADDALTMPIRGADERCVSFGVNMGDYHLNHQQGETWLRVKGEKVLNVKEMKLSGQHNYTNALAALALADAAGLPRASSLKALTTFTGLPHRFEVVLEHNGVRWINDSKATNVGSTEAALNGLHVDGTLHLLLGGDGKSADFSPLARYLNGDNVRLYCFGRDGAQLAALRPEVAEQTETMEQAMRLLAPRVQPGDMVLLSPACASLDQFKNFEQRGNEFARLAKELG

Compound	MurC IC50 ([1]; (E) E. coli enzyme)	IC50 [1, 6]	IC50 [2]	melting point	also measured
O=C1O/C(=C\c2ccc(-c3cccc(C(F)(F)F)c3)cc2)C(O)=C1c1cccc(C(F)(F)F)c1	11 µg/mL				MurD IC50 [2]: 24 µg/mL; % Mortality 24 h ([3]; assessed at 24 h): 0%; % Mortality 48 h ([3]; assessed at 48 h): 0%
O=C1O/C(=C\c2ccc(-c3cc(Cl)cc(Cl)c3)cc2)C(O)=C1c1cc(Cl)cc(Cl)c1	17 µg/mL				MurD IC50 [2]: 6 µg/mL; mortality at 20 ppm [3, 4]: 0%; mortality at 20 ppm [3, 5]: 0%
O=C1OC(=Cc2ccc(-c3ccccc3)cc2)C(O)=C1c1cccc(C(F)(F)F)c1 (mixture of isomers) [Example 11]	4 µg/mL				MurD IC50 [2]: 21 µg/mL
Cc1ccc(C=C2OC(=O)C(c3ccc(Cl)cc3)=C2O)s1 (mixture of isomers) [Example 13]	4 µg/mL				MurD IC50 [2]: > 25 µg/mL
O=C1OC(=Cc2cccc3ccccc23)C(O)=C1c1ccc(C=NO)cc1 (mixture of isomers) [Example 73]	19 µg/mL				
O=C1O/C(=C\c2ccc(-c3ccccc3)cc2)C(O)=C1c1cccc(C(F)(F)F)c1 [Example 10]		9.79 µM	51.4 µM	240 to 241.5 °C	
Cc1ccc(C=C2OC(=O)C(c3ccc(Cl)cc3)=C2O)s1 [Example 14]	13 µg/mL				
O=C1O/C(=C\C2CCCCC2)C(O)=C1c1ccc(Cl)cc1 [Example 15]		55.8 µM	> 82 µM	200 to 205 °C	
O=C1OC(=CC2CCCCC2)C(O)=C1c1cccc(C(F)(F)F)c1 [Example 16]	7 µg/mL				
O=C1O/C(=C\C2CCCCC2)C(O)=C1c1cccc(C(F)(F)F)c1 [Example 17]	10 µg/mL				
COc1ccccc1-c1ccc(/C=C2\OC(=O)C(c3cc(Cl)cc(Cl)c3)=C2O)cc1OC [Example 19]		12.8 µM	> 53.3 µM		
COc1ccccc1-c1ccc(/C=C2\OC(=O)C(c3ccc(Cl)c(Cl)c3)=C2O)cc1OC [Example 20]		23.4 µM	> 53.3 µM		
O=C1O/C(=C\c2cccc(C(F)(F)F)c2)C(O)=C1c1ccc2ccccc2c1 [Example 42]	6 µg/mL				
O=C1O/C(=C\c2ccc(Cl)cc2)C(O)=C1c1ccc2ccccc2c1 [Example 43]		11.5 µM	> 71.7 µM	243 to 250 °C	
O=C1O/C(=C\c2cccc3ccccc23)C(O)=C1c1cccc2ccccc12 [Example 47]		30.2 µM	> 68.6 µM	216 to 218 °C	
O=C1O/C(=C\C2CCCCC2)C(O)=C1c1ccc2ccccc2c1 [Example 51]	9 µg/mL		> 78 µM		
O=C1O/C(=C\c2ccc3ccccc3c2)C(O)=C1c1ccc2ccccc2c1 [Example 52]		46.7 µM	63.1 µM	285 to 290 °C	
O=C1O/C(=C\c2ccc(-c3ccccc3)cc2)C(O)=C1c1ccc(Cl)cc1 [Example 53]		13.3 µM	13.3 µM	282 to 285 °C	
O=C1O/C(=C\c2ccc3ccccc3c2)C(O)=C1c1ccc(Cl)cc1 [Example 54]		14.3 µM	> 71.7 µM	284 to 286 °C	
O=C1O/C(=C\c2ccc3ccccc3c2)C(O)=C1c1cccc2ccccc12 [Example 56]		13.7 µM	> 68.6 µM	235 to 237 °C	
O=C1O/C(=C\c2ccc(-c3ccccc3)cc2)C(O)=C1c1cc(Cl)cc(Cl)c1 [Example 67]		14.7 µM	22 µM	279 to 280 °C	

Compound	MurC IC50 ([1]; (E) E. coli enzyme)	IC50 [1, 6]	IC50 [2]	melting point	also measured
O=C1O/C(=C\c2ccc(-c3ccccc3)cc2)C(O)=C1c1cccc(Cl)c1 [Example 69]			50.7 µM	248 to 250 °C	
O=C1O/C(=C\c2cccc3ccccc23)C(O)=C1c1cc(Cl)cc(Cl)c1 [Example 70]		13 µM	44.4 µM	244 to 245 °C	
O=C1O/C(=C\c2cccc3ccccc23)C(O)=C1c1ccc(C(F)(F)F)cc1 [Example 71]		28.8 µM	> 65.4 µM	245 to 247 °C	
COc1cccc(C2=C(O)/C(=C/c3cccc4ccccc34)OC2=O)c1 [Example 72]		> 72.6 µM	> 72.6 µM	214 to 216 °C	
COC(=O)c1ccc(C2=C(O)/C(=C/c3cccc4ccccc34)OC2=O)cc1 [Example 74]		51 µM	> 67.1 µM	242 to 244 °C	
CCOC(=O)c1cccc(C2=C(O)C(=Cc3cccc4ccccc34)OC2=O)c1 [Example 75]	18 µg/mL				
O=Cc1cccc(C2=C(O)/C(=C/c3cccc4ccccc34)OC2=O)c1 [Example 76]		14.6 µM	67.2 µM	220 to 221 °C	
O=C1O/C(=C\c2cccc3ccccc23)C(O)=C1c1cccc(C=NO)c1 [Example 77]	9 µg/mL				
O=C1O/C(=C\C2CCCCC2)C(O)=C1c1ccc(-c2ccccc2)cc1 [Example 100]		37.5 µM	> 72.2 µM	204 to 207 °C	
O=C1O/C(=C\c2cccnc2)C(O)=C1c1ccc(-c2ccccc2)cc1 [Example 101]		52.7 µM	> 73.2 µM	252 to 255 °C	
Cc1ccc(/C=C2\OC(=O)C(c3ccc(-c4ccccc4)cc3)=C2O)s1 [Example 104]		13.9 µM	> 69.4 µM	235 to 240 °C	
O=C1O/C(=C\c2cccc(C(F)(F)F)c2)C(O)=C1c1ccc(-c2ccccc2)c(F)c1 [Example 106]		21.1 µM			
O=C1O/C(=C\c2cccc(-c3cccc(Cl)c3)c2)C(O)=C1c1cccc(Cl)c1 [Example 134]	5 µg/mL				MurD IC50 [2]: 6 µg/mL
O=C1O/C(=C\c2cccc(-c3cc(Cl)cc(Cl)c3)c2)C(O)=C1c1cc(Cl)cc(Cl)c1 [Example 136]	11 µg/mL		12.5 µM		
O=C1O/C(=C\c2ccccc2-c2ccc(Cl)cc2)C(O)=C1c1ccc(Cl)cc1 [Example 137]		41.5 µM			
O=C1O/C(=C\c2ccc(Cl)cc2)C(O)=C1c1ccc(-c2ccccc2)c(F)c1 [Example 138]		12.7 µM		255 to 258 °C	
O=C1O/C(=C\c2ccc(-c3ccccc3)cc2)C(O)=C1c1csc2ccccc12 [Example 143]				270 °C	
O=C1O/C(=C\c2ccc(-c3ccccc3)cc2)C(O)=C1c1cccs1 [Example 144]				213 °C (dec.)	
O=C1O/C(=C\c2ccc(C(F)(F)F)cc2)C(O)=C1c1ccc(-c2ccccc2)cc1 [R=H, R1=4-(biphenyl), R2=4-CF3—C6H4]			29.4 µM		IC50 ([1]; MurC IC50, (E) E. coli enzyme): 12.2 µM; mortality at 20 ppm [3, 4]: 0%; mortality at 20 ppm [3, 5]: 0%
O=C1O/C(=C\c2ccc(-c3ccc(Cl)cc3)cc2)C(O)=C1c1ccc(Cl)cc1 [R=H, R1=4-Cl—C6H4, R2=4-(4′-Cl-biphenyl)]			14.7 µM		IC50 ([1]; MurC IC50, (E) E. coli enzyme): 29.3 µM; mortality at 20 ppm [3, 4]: 0%; mortality at 20 ppm [3, 5]: 0%
O=C1O/C(=C\c2cccc3ccccc23)C(O)=C1c1ccc(-c2ccccc2)cc1 [R=H, R1=4-biphenyl, R2=1-naphthyl]			> 64 µM		IC50 ([1]; MurC IC50, (E) E. coli enzyme): 15.4 µM; mortality at 20 ppm [3, 4]: 100%; mortality at 20 ppm [3, 5]: 100%
